Measured values taken from US10166292B2, “Blocking IL-9 signaling in conjunction with chemotherapy to treat cancer” (Mayo Foundation for Medical Education and Research, priority 2014, dated 2019).

Experiments:
CD4^+ T cells = test: IFNγ ELISpot assay of enriched T cells; format: cell-based, mice; details: CD4^+ T cells plus tumor cell lines, no syngeneic antigen-presenting cells; positive control
Protocol: 1×10^5 4T1 splenocytes were co cultured with either 5×10^4 4T1 or TUBO cells. 5×10^4 4T1 lymphocytes were co cultured with either 2.5×10^4 4T1 or TUBO cells, following the manufacturers' instructions. CD4^+ and CD8^+ T cells were enriched from the spleens of naïve and 4T1-bearing WT and IL-9ko mice using a negative isolation kit (Invitrogen, Carlsbad Calif.). 1×10^5 T cells were co-cultured with 2.5×10^4 4T1 cells or with BM185, a non-specific control tumor line for 40 hours. Each experimental condition was executed in biological triplicates, which in turn comprised triplicate wells. Manufacturer's instructions were followed to reveal INFγ positive spots using the interferon gamma ELISpot kit from Mabtech (cat #3321-2HW-Plus). The plates were imaged and evaluated by ZellNet Consulting, Inc. (Fort Lee N.J.), and result expressed as average of triplicate spots per condition. Phorbol 12-myristate 13-acetate (PMA) was used as a positive control of cell activation.
These cells were co-cultured with 4T1 or BM185 cells, a BALB/c background murine leukemia cell line used here as a negative control (FIG. 4C). […]

4T1 cells = test: Experimental metastasis model, tail vein injection of 4T1 cells, foci in the lung; format: in vivo; details: IL-9ko mice, 1×10^5 4T1 cells tail vein; IL-9ko without IL-9: 3, WT: 87; p=0.043
Excerpt: Since few IL-9ko mice that developed 4T1 tumors never had evidence of macro metastases in the lungs, an experimental metastasis model was used to verify whether IL-9 plays a role in 4T1 seeding in the lung. […] Addition of recombinant IL-9 led to enhanced 4T1 seeding in the lungs of IL-9ko mice (an average of 13 foci per lung) (p=0.043, FIGS. 7A and 7B).

Row | Molecule | IFNγ^+ spots (CD4^+ T cells) | average foci per lung (4T1 cells) [foci per lung]
1 | CCCCCCCCCCCCCC(=O)O[C@@H]1[C@@H](C)[C@@]2(O)[C@@H](C=C(CO)C[C@]3(O)C(=O)C(C)=C[C@@H]23)[C@@H]2C(C)(C)[C@]12OC(C)=O [PMA, Phorbol 12-myristate 13-acetate] | produced IFNγ^+ spots only if exposed to PMA | 
2 | recombinant IL-9: Recombinant IL-9 cytokine added to IL-9ko mice in the 4T1 lung metastasis model (protein, UniProt P15247 19-144, looked up) Interleukin-9: QRCSTTWGIRDTNYLIENLKDDPPSKCSCSGNVTSCLCLSVPTDDCTTPCYREGLLQLTNATQKSRLLPVFHRVKRIVEVLKNITCPSFSCEKPCNQTMAGNTLSFLKSLLGTFQKTEMQRQKSRP |  | 13
